Measurements as given in ChEMBL document CHEMBL3861969, “Acredinone C and the Effect of Acredinones on Osteoclastogenic and Osteoblastogenic Activity” (J Nat Prod, 2016).
The source made the active and inactive calls. The calls are words filed in the database; no cut-off is given here.

Assays:
[1] = biological target: Mitogen-activated protein kinase 3 (Mus musculus) (UniProt Q63844); test: Inhibition of RANKL-induced ERK1 phosphorylation in mouse BMDM cells assessed as ratio of phosphorylated ERK1 to ERK1 at 10 uM preincubated for 5 mins followed RANKL/M-CSF addition for 5 mins by Western blot analysis (reference value: 2.9); assay type: cell-based
Mitogen-activated protein kinase 3 (Mus musculus), sequence (Q63844 whole entry): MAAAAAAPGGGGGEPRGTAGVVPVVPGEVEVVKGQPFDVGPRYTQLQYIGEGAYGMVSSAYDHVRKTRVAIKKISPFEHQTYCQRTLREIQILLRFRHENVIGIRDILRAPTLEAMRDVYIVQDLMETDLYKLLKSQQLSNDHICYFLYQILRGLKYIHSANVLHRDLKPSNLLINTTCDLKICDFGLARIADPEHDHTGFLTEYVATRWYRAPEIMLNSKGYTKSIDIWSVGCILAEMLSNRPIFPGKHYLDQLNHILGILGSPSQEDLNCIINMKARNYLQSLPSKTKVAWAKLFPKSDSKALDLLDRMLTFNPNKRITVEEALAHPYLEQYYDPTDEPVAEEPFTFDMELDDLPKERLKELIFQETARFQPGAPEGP

[2] = biological target: Mitogen-activated protein kinase 9 (Mus musculus) (UniProt Q9WTU6); test: Inhibition of RANKL-induced JNK2 phosphorylation in mouse BMDM cells assessed as ratio of phosphorylated JNK2 to JNK2 at 10 uM preincubated for 5 mins followed RANKL/M-CSF addition for 5 mins by Western blot analysis (reference value: 5.2); assay type: cell-based
Mitogen-activated protein kinase 9 (Mus musculus), sequence (Q9WTU6 whole entry): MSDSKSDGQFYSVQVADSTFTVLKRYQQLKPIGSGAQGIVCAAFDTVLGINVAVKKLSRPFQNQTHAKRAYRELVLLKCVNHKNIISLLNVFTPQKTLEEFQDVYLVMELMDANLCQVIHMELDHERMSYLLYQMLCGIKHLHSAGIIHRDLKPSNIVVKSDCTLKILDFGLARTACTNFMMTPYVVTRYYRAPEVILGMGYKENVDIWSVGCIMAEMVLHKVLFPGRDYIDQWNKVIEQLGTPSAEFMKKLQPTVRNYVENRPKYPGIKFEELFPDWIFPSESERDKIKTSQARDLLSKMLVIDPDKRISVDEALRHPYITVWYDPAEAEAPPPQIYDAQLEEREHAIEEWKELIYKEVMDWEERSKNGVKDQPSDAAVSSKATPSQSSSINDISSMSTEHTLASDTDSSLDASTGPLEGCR

[3] = biological target: Mitogen-activated protein kinase 8 (Mus musculus) (UniProt Q91Y86); test: Inhibition of RANKL-induced JNK1 phosphorylation in mouse BMDM cells assessed as ratio of phosphorylated JNK1 to JNK1 at 10 uM preincubated for 5 mins followed RANKL/M-CSF addition for 5 mins by Western blot analysis (reference value: 3.7); assay type: cell-based
Mitogen-activated protein kinase 8 (Mus musculus), sequence (Q91Y86 whole entry): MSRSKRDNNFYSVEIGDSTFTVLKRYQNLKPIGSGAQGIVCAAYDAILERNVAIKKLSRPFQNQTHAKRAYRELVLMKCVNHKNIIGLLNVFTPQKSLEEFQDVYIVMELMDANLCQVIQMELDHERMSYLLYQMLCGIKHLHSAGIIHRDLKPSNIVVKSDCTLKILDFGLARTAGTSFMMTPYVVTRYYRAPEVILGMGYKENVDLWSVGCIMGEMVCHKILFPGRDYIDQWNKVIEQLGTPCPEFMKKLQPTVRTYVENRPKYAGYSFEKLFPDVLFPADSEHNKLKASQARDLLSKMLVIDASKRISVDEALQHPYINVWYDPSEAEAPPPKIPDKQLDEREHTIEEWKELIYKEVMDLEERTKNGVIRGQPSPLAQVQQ

[4] = biological target: RAC-alpha serine/threonine-protein kinase (Mus musculus) (UniProt P31750); test: Inhibition of RANKL-induced AKT phosphorylation in mouse BMDM cells assessed as ratio of phosphorylated AKT to AKT at 10 uM preincubated for 5 mins followed RANKL/M-CSF addition for 5 mins by Western blot analysis (reference value: 2.1); assay type: cell-based
RAC-alpha serine/threonine-protein kinase (Mus musculus), sequence (P31750 whole entry): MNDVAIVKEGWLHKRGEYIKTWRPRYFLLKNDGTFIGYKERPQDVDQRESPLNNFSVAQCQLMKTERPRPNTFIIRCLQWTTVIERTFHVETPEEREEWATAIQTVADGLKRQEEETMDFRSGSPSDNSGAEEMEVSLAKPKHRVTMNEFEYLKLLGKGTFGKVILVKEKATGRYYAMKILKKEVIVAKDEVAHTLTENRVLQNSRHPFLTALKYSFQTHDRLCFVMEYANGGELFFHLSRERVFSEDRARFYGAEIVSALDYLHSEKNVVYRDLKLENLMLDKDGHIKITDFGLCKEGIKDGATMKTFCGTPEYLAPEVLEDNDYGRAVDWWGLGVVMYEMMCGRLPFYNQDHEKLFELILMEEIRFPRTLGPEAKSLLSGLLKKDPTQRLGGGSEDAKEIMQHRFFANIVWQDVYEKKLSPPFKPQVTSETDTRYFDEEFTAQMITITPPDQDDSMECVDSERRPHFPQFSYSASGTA

[5] = Inhibition of RANKL-induced NFATc1 expression in mouse BMDM cells assessed as ratio of NFATc1 to actin at 10 uM preincubated with cells followed RANKL/M-CSF addition measured after 1day by Western blot analysis (reference value: 281); assay type: functional
[6] = tested on: BMDM; test: Inhibition of RANKL-induced mouse BMDM cell differentiation assessed as TRAP-positive MNCs at 0.1 to 10 uM preincubated for 5 mins followed by RANKL/M-CSF addition measured after 4 days by TRAP-staining based assay; assay type: functional
[7] = tested on: BMDM; test: Inhibition of RANKL-induced NFATc1 mRNA expression in mouse BMDM cells at 10 uM preincubated with cells followed by RANKL addition measured after 2 days by real-time PCR analysis; assay type: functional, cell-based
[8] = tested on: BMDM; test: Inhibition of RANKL-induced TRAP mRNA expression in mouse BMDM cells at 10 uM preincubated with cells followed by RANKL addition measured after 2 days by real-time PCR analysis; assay type: functional, cell-based
[9] = tested on: BMDM; test: Inhibition of RANKL-induced OSCAR mRNA expression in mouse BMDM cells at 10 uM preincubated with cells followed by RANKL addition measured after 2 days by real-time PCR analysis; assay type: functional, cell-based
[10] = tested on: BMDM; test: Inhibition of RANKL-induced c-Src mRNA expression in mouse BMDM cells at 10 uM preincubated with cells followed by RANKL addition measured after 2 days by real-time PCR analysis; assay type: functional, cell-based
[11] = tested on: BMDM; test: Inhibition of RANKL-induced DC-STAMP mRNA expression in mouse BMDM cells at 10 uM preincubated with cells followed by RANKL addition measured after 2 days by real-time PCR analysis; assay type: functional, cell-based
[12] = tested on: BMDM; test: Inhibition of RANKL-induced cathespin K mRNA expression in mouse BMDM cells at 10 uM preincubated with cells followed by RANKL addition measured after 2 days by real-time PCR analysis; assay type: functional, cell-based
[13] = tested on: C2C12; test: Induction of BMP2-induced osteoblast differentiation in mouse C2C12 cells preincubated with cells after 3 days by […] assay; assay type: functional, cell-based
[14] = tested on: C2C12; test: Induction of BMP2-induced osteoblast differentiation in mouse C2C12 cells assessed as increase in ALP mRNA expression at 10 uM preincubated with cells followed by BMP2 addition measured after 3 days by real-time PCR analysis; assay type: functional, cell-based
[15] = species: Mus musculus; test: Cytotoxicity against mouse C2C12 cells assessed as reduction cell viability after 3 days in presence of BMP2 by CCK-8 assay; assay type: toxicity, cell-based; conditions: c2c12, 72 h
[16] = tested on: C2C12; test: Induction of osteoblast differentiation in mouse C2C12 cells assessed as increase in BMP2-induced ALP activity preincubated with cells after 3 days using p-nitrophenyl phosphate as substrate; assay type: functional, cell-based
[17] = tested on: C2C12; test: Increase in BMP2-induced BMP2 mRNA expression in mouse C2C12 cells at 10 uM measured on day 3 by real-time PCR analysis; assay type: functional, cell-based
[18] = tested on: C2C12; test: Increase in BMP2-induced BMP6 mRNA expression in mouse C2C12 cells at 10 uM measured on day 3 by real-time PCR analysis; assay type: functional, cell-based
[19] = tested on: C2C12; test: Increase in BMP2-induced BMP9 mRNA expression in mouse C2C12 cells at 10 uM measured on day 3 by real-time PCR analysis; assay type: functional, cell-based
[20] = tested on: C2C12; test: Increase in BMP2-induced BMP2 protein expression in mouse C2C12 cells assessed as ration of BMP2 to actin at 10 uM measured on day 3 by Western blot analysis (reference value: 1.4); assay type: functional
[21] = biological target: T1, SMAD1/5/9 (Mus musculus) (UniProt P70340+P97454+Q9JIW5); test: Increase in BMP2-induced Smad1/5/8 phosphorylation in mouse C2C12 cells assessed as ratio of phosphorylated Smad1/5/8 to Smad1/5/8 in nuclear fraction at 10 uM preincubated with cells followed by BMP2 addition for 4 hrs by Western blot analysis (reference value: 1.2); assay type: cell-based
[22] = tested on: C2C12; test: Increase in BMP2-induced BMP7 protein expression in mouse C2C12 cells assessed as ratio of BMP7 to actin at 10 uM measured on day 6 by Western blot analysis (reference value: 2.4); assay type: functional
[23] = tested on: Mus musculus; test: Osteogenic activity in ICR mouse calvarial bone implanted with collagen sponges containing 10 mM compound incubated for 2 weeks assessed as increase in woven bone formation near periosteum of the calvarial bone by hematoxylin and eosin staining based assay relative to control; assay type: functional
[24] = biological target: T1, SMAD1/5/9 (Mus musculus); test: Increase in BMP2-induced Smad1/5/8 nuclear translocation in mouse C2C12 cells assessed as ratio of Smad1/5/8 to lamin B1 in nuclear fraction at 10 uM preincubated with cells followed by BMP2 addition for 4 hrs by Western blot analysis (reference value: 1.5); assay type: cell-based
[25] = biological target: T1, SMAD1/5/9 (Mus musculus); test: Increase in BMP2-induced Smad1/5/8 nuclear translocation in mouse C2C12 cells assessed as ratio of Smad1/5/8 to actin in cytosol fraction at 10 uM preincubated with cells followed by BMP2 addition for 4 hrs by Western blot analysis (reference value: 0.4); assay type: cell-based
[26] = biological target: T1, SMAD1/5/9 (Mus musculus); test: Activation of Smad1/5/8 in mouse C2C12 cells assessed as increase in BMP2-stimulated Runx2 mRNA expression at 10 uM preincubated with cells followed by BMP2 addition after 3 days by real-time PCR analysis; assay type: cell-based
[27] = biological target: T1, SMAD1/5/9 (Mus musculus); test: Activation of Smad1/5/8 in mouse C2C12 cells assessed as increase in BMP2-stimulated OPN mRNA expression at 10 uM preincubated with cells followed by BMP2 addition after 3 days by real-time PCR analysis; assay type: cell-based

**Q.** What does the source list for COc1cccc(OC)c1C(=O)c1c(O)cc(C)c(OC)c1C1=C(c2c(OC)cccc2OC)c2c(O)cc(C)c(OC)c2C1=O?
**A.** fold change (FC) [1]: 3.2; fold change (FC) [2]: 4.3; fold change (FC) [3]: 2.9; fold change (FC) [4]: 2; fold change (FC) [5]: 175; inhibition [6]: Active; inhibition [7]: Active; inhibition [8]: Active; inhibition [9]: Active; inhibition [10]: Active; inhibition [11]: Active; inhibition [12]: Active; Activity [13]: Dose-dependent effect; Activity [14]: Active; Activity [15]: Non-Toxic; Activity [16]: Dose-dependent effect; Activity [17]: Active; Activity [18]: Active; Activity [19]: Active; fold change (FC) [20]: 3.8; fold change (FC) [21]: 1.7; fold change (FC) [22]: 3.1; Activity [23]: Active; fold change (FC) [24]: 2.4; fold change (FC) [25]: 0.1; Activity [26]: Active; Activity [27]: Active
